Source: US11542240B2, “STK19 inhibitors for treatment of cancer” (TRUSTEES OF BOSTON UNIVERSITY, priority 2018, dated 2023)
Like-named read-outs stand apart in the source and are kept apart here.

What was measured:
Experiment in all cases: biochemical
Format in all cases: binding
[1] = molecular target: panel of 468 diverse kinases (Homo sapiens, UniProt O14965); conditions: AURKA; 1000 nM; read-out: Percent Control
[2] = molecular target: panel of 468 diverse kinases (Homo sapiens, UniProt O14733); conditions: MKK7; 1000 nM; read-out: Percent Control
[3] = molecular target: panel of 468 diverse kinases (Homo sapiens, UniProt P42681); conditions: TXK; 1000 nM; read-out: Percent Control
[4] = molecular target: panel of 468 diverse kinases (Homo sapiens, UniProt P36888); conditions: 1000 nM, read-out: Percent Control
Chain of panel of 468 diverse kinases (Homo sapiens, UniProt P36888) (P36888 27-993 limits assumed): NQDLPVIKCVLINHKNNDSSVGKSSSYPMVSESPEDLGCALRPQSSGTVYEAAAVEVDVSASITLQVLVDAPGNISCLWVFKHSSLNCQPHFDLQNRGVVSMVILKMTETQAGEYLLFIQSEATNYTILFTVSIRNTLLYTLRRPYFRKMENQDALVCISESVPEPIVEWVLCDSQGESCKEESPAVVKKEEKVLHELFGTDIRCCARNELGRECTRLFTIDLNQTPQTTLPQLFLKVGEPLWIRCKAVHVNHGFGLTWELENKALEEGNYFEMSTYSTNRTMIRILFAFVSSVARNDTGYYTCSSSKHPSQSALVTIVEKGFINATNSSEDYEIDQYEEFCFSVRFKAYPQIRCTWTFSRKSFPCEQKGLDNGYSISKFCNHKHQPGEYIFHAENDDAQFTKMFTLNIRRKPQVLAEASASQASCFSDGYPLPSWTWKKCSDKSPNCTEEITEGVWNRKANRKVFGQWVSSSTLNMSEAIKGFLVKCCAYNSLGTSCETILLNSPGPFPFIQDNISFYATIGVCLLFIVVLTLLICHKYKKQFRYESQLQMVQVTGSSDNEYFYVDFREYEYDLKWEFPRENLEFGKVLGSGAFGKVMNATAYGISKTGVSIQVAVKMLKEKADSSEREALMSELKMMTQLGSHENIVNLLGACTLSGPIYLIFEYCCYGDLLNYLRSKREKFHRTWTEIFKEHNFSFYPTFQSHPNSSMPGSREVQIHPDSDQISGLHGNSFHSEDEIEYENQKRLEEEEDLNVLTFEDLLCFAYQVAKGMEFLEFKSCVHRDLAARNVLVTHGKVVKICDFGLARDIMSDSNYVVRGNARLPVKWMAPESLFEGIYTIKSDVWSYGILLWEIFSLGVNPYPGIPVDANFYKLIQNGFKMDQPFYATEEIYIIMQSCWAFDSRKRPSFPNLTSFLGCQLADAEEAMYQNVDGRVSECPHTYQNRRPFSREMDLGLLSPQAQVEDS

[5] = molecular target: panel of 468 diverse kinases (Homo sapiens, UniProt P29320); conditions: EPHA3; 1000 nM; read-out: Percent Control
[6] = molecular target: panel of 468 diverse kinases (Homo sapiens, UniProt P54756); conditions: EPHA5; 1000 nM; read-out: Percent Control
Chain of panel of 468 diverse kinases (Homo sapiens, UniProt P54756) (P54756 25-1037 limits assumed): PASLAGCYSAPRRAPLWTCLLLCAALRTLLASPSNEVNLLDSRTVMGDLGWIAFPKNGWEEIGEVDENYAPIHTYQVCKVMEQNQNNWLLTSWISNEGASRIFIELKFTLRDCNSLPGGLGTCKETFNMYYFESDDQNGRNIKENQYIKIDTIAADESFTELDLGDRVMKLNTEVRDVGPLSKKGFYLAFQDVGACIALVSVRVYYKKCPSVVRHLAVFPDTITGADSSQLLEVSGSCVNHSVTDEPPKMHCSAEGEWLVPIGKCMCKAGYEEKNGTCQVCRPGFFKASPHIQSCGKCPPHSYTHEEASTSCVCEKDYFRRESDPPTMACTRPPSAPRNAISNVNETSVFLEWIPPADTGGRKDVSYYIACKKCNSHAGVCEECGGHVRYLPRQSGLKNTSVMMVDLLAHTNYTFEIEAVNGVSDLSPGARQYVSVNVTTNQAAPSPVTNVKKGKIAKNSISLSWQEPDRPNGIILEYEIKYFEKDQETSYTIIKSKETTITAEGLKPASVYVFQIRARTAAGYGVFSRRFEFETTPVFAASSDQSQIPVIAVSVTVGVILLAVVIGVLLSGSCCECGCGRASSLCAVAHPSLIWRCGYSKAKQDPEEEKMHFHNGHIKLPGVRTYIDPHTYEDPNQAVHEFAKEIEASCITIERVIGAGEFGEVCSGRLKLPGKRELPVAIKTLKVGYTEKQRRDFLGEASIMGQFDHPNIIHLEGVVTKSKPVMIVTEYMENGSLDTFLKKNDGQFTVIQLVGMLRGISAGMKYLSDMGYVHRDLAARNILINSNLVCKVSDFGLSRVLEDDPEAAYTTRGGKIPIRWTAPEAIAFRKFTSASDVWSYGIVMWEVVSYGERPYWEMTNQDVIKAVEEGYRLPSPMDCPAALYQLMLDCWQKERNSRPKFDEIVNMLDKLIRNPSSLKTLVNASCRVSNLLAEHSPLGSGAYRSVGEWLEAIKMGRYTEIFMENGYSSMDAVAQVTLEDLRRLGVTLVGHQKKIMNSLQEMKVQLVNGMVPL

[7] = molecular target: panel of 468 diverse kinases (Homo sapiens, UniProt P78356); conditions: PIP5K2B; 1000 nM; read-out: Percent Control
Chain of panel of 468 diverse kinases (Homo sapiens, UniProt P78356) (P78356 2-416 limits assumed): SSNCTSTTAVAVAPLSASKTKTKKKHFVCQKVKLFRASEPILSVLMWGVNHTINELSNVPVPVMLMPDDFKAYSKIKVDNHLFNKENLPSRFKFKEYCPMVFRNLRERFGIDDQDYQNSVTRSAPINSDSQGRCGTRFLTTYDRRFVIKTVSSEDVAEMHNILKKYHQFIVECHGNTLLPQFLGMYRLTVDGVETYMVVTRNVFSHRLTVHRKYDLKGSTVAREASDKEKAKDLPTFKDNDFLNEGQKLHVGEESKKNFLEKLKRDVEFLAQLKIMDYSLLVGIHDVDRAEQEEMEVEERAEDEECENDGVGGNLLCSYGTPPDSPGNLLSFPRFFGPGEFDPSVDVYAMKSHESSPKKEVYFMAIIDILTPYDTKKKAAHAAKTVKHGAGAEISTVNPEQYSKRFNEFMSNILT

[8] = molecular target: panel of 468 diverse kinases (Homo sapiens, UniProt P52333); conditions: JAK3(JH1domain-catalytic); 1000 nM; read-out: Percent Control
[9] = molecular target: panel of 468 diverse kinases (Homo sapiens, UniProt Q05655); conditions: PRKCD; 1000 nM; read-out: Percent Control
[10] = molecular target: panel of 468 diverse kinases (Homo sapiens, UniProt Q9H2G2); conditions: SLK; 1000 nM; read-out: Percent Control
[11] = molecular target: panel of 468 diverse kinases (Homo sapiens, UniProt Q13555); conditions: CAMK2G; 1000 nM; read-out: Percent Control
[12] = molecular target: panel of 468 diverse kinases (Homo sapiens, UniProt P00533, G719S); conditions: EGFR(G719S); 1000 nM; read-out: Percent Control
[13] = molecular target: panel of 468 diverse kinases (Homo sapiens, UniProt P29323); conditions: EPHB2; 1000 nM; read-out: Percent Control
[14] = molecular target: panel of 468 diverse kinases (Homo sapiens, UniProt Q86Y07); conditions: VRK2; 1000 nM; read-out: Percent Control
[15] = molecular target: panel of 468 diverse kinases (Homo sapiens, UniProt O75385); conditions: ULK1; 1000 nM; read-out: Percent Control
[16] = molecular target: panel of 468 diverse kinases (Homo sapiens, UniProt Q6P2M8); conditions: CAMK1B; 1000 nM; read-out: Percent Control
[17] = molecular target: panel of 468 diverse kinases (Homo sapiens, UniProt Q16816); conditions: PHKG1; 1000 nM; read-out: Percent Control
[18] = molecular target: panel of 468 diverse kinases (Homo sapiens, UniProt P42336, H1047L); conditions: PIK3CA(H1047L); 1000 nM; read-out: Percent Control
[19] = molecular target: panel of 468 diverse kinases (Homo sapiens, UniProt O95747); conditions: OSR1; 1000 nM; read-out: Percent Control
[20] = molecular target: panel of 468 diverse kinases (Homo sapiens, UniProt P22607, G697C); conditions: FGFR3(G697C); 1000 nM; read-out: Percent Control
Chain of panel of 468 diverse kinases (Homo sapiens, UniProt P22607, G697C) (P22607 23-806 G697C limits assumed): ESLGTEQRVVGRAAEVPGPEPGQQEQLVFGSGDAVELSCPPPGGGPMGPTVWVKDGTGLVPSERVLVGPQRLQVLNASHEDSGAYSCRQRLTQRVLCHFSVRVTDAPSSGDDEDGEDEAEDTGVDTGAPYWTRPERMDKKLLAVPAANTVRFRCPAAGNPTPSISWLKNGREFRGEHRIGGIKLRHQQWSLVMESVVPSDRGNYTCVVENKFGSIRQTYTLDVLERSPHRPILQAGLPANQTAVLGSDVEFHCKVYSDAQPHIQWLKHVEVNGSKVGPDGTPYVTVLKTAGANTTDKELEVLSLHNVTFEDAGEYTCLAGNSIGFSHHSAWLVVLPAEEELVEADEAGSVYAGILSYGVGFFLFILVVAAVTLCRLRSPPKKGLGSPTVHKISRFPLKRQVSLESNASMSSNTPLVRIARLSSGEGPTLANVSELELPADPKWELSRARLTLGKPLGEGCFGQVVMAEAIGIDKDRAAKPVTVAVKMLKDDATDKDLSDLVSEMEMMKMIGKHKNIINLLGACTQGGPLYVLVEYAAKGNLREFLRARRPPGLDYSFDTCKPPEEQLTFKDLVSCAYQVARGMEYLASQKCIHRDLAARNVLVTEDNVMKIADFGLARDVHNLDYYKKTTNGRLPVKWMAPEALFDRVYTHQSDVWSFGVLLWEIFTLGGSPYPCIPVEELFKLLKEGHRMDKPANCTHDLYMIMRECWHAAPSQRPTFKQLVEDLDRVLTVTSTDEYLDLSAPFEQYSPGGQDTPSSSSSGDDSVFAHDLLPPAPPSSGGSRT

[21] = molecular target: panel of 468 diverse kinases (Homo sapiens, UniProt P07333); conditions: 1000 nM, read-out: Percent Control
Chain of panel of 468 diverse kinases (Homo sapiens, UniProt P07333) (P07333 20-972 limits assumed): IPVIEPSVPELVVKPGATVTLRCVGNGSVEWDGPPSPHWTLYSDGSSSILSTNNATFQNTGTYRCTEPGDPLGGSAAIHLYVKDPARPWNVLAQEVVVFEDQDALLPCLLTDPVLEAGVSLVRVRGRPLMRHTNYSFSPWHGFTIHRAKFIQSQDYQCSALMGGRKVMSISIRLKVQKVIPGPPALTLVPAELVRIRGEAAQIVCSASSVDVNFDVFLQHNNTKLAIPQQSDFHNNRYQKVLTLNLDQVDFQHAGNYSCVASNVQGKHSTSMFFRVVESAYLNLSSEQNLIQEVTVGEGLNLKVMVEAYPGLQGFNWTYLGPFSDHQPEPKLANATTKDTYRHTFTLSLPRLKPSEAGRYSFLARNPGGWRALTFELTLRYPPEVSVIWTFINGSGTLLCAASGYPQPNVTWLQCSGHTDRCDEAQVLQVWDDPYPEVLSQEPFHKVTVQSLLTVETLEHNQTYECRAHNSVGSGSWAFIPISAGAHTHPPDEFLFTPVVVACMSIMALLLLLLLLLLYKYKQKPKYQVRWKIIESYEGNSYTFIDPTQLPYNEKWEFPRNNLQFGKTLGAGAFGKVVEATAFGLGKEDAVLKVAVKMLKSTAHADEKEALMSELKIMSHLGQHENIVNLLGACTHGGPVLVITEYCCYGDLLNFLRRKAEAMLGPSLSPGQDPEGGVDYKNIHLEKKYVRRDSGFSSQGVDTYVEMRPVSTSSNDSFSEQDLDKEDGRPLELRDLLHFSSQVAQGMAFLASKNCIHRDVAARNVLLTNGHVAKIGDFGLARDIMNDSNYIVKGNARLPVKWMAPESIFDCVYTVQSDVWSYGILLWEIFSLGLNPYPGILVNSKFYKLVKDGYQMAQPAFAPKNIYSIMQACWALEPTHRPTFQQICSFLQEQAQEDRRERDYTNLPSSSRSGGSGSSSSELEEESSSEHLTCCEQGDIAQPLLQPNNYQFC

[22] = molecular target: panel of 468 diverse kinases (Plasmodium falciparum, UniProt P61075); conditions: read-out: Percent Control
[23] = molecular target: panel of 468 diverse kinases (Homo sapiens, UniProt Q96GD4); conditions: AURKB; 1000 nM; read-out: Percent Control
[24] = molecular target: panel of 468 diverse kinases (Homo sapiens, UniProt P21709); conditions: EPHA1; 1000 nM; read-out: Percent Control
Chain of panel of 468 diverse kinases (Homo sapiens, UniProt P21709) (P21709 26-976 limits assumed): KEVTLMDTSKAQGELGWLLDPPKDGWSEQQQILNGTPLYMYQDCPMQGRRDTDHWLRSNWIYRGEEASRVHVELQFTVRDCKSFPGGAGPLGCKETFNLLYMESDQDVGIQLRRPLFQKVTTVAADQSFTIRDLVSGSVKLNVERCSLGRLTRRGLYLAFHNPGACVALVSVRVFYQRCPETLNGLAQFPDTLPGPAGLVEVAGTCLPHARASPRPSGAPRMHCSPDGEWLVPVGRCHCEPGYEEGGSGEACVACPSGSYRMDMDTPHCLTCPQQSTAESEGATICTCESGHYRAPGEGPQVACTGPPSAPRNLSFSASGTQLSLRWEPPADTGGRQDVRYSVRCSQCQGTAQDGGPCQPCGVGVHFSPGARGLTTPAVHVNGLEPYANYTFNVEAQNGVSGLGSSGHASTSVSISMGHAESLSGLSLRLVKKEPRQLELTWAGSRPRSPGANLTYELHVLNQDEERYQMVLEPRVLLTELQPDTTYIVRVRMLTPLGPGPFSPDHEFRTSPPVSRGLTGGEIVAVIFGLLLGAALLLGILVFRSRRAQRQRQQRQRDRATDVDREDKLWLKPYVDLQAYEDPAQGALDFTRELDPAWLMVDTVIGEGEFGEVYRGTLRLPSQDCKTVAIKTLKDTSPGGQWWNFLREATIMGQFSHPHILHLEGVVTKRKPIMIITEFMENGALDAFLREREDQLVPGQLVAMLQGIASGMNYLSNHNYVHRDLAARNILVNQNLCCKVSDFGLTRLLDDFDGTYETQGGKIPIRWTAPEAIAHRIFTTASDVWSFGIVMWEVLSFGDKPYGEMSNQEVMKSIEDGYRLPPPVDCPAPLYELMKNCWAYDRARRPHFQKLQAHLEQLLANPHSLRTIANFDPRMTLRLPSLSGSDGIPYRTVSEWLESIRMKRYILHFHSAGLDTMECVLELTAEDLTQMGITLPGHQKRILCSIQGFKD

[25] = molecular target: panel of 468 diverse kinases (Homo sapiens, UniProt P42336, E545K); conditions: PIK3CA(E545K); 1000 nM; read-out: Percent Control
[26] = molecular target: panel of 468 diverse kinases (Homo sapiens, UniProt Q16832); conditions: DDR2; 1000 nM; read-out: Percent Control
[27] = molecular target: panel of 468 diverse kinases (Homo sapiens, UniProt O75116); conditions: ROCK2; 1000 nM; read-out: Percent Control
[28] = molecular target: panel of 468 diverse kinases (Homo sapiens, UniProt P36894); conditions: BMPRIV; 1000 nM; read-out: Percent Control
[29] = molecular target: panel of 468 diverse kinases (Homo sapiens, UniProt P08069); conditions: IGF1R; 1000 nM; read-out: Percent Control
[30] = molecular target: panel of 468 diverse kinases (Homo sapiens, UniProt Q96D53); conditions: ADCK4; 1000 nM; read-out: Percent Control
[31] = molecular target: panel of 468 diverse kinases (Homo sapiens, UniProt Q8NEV4); conditions: MYO3A; 1000 nM; read-out: Percent Control

## COc1cc2nc(NC3CC3)nc(NC3CCN(C(C)C)CC3)c2cc1OC [Formula IV]
[1]
  remaining activity at 1 µM: 56%
[2]
  remaining activity at 1 µM: 72%
[3]
  remaining activity at 1 µM: 98%
[4]; FLT3-autoinhibited
  remaining activity at 1 µM: 51%
[4]; FLT3
  remaining activity at 1 µM: 100%
[5]
  remaining activity at 1 µM: 93%
[6]
  remaining activity at 1 µM: 86%
[7]
  remaining activity at 1 µM: 100%
[8]
  remaining activity at 1 µM: 70%
[9]
  remaining activity at 1 µM: 97%
[10]
  remaining activity at 1 µM: 100%
[11]
  remaining activity at 1 µM: 100%
[12]
  remaining activity at 1 µM: 91%
[13]
  remaining activity at 1 µM: 70%
[14]
  remaining activity at 1 µM: 56%
[15]
  remaining activity at 1 µM: 51%
[16]
  remaining activity at 1 µM: 59%
[17]
  remaining activity at 1 µM: 90%
[18]
  remaining activity at 1 µM: 90%
[19]
  remaining activity at 1 µM: 73%
[20]
  remaining activity at 1 µM: 100%
[21]; CSF1R-autoinhibited
  remaining activity at 1 µM: 54%
[21]; CSF1R
  remaining activity at 1 µM: 91%
[22]
  remaining activity at 1 µM: 48%
[23]
  remaining activity at 1 µM: 84%
[24]
  remaining activity at 1 µM: 100%
[25]
  remaining activity at 1 µM: 48%
[26]
  remaining activity at 1 µM: 66%
[27]
  remaining activity at 1 µM: 49%
[28]
  remaining activity at 1 µM: 100%
[29]
  remaining activity at 1 µM: 97%
[30]
  remaining activity at 1 µM: 100%
[31]
  remaining activity at 1 µM: 100%
